tested on: Plasmodium falciparum; assay: Antimalarial activity against chloroquine-resistant Plasmodium falciparum W2 after 48 hrs by flow cytometry; assay type: functional, organism-based; details: W2, 48 h

SMILES	IC50 [nM]
O=C1C(O)c2cc(F)ccc2N1CCCn1cc(COc2ccc(CNNc3ccnc4cc(Cl)ccc34)cc2)nn1 (configuration not stated)	206
O=C1C(O)c2cc(F)ccc2N1CCCCn1cc(COc2ccc(CNNc3ccnc4cc(Cl)ccc34)cc2)nn1 (configuration not stated)	164
O=C1C(O)c2cc(Cl)ccc2N1CCn1cc(COc2ccc(CNNc3ccnc4cc(Cl)ccc34)cc2)nn1 (configuration not stated)	182
O=C1C(O)c2cc(Cl)ccc2N1CCCn1cc(COc2ccc(CNNc3ccnc4cc(Cl)ccc34)cc2)nn1 (configuration not stated)	350
O=C1C(O)c2cc(Cl)ccc2N1CCCCn1cc(COc2ccc(CNNc3ccnc4cc(Cl)ccc34)cc2)nn1 (configuration not stated)	168
Cc1ccc2c(c1)C(O)C(=O)N2CCn1cc(COc2ccc(CNNc3ccnc4cc(Cl)ccc34)cc2)nn1 (configuration not stated)	320
Cc1ccc2c(c1)C(O)C(=O)N2CCCn1cc(COc2ccc(CNNc3ccnc4cc(Cl)ccc34)cc2)nn1 (configuration not stated)	509
Cc1ccc2c(c1)C(O)C(=O)N2CCCCn1cc(COc2ccc(CNNc3ccnc4cc(Cl)ccc34)cc2)nn1 (configuration not stated)	326
O=C1C(=O)N(CCn2cc(COc3ccc(/C=N/Nc4ccnc5cc(Cl)ccc45)cc3)nn2)c2ccc(F)cc21	190
O=C1C(=O)N(CCCn2cc(COc3ccc(/C=N/Nc4ccnc5cc(Cl)ccc45)cc3)nn2)c2ccc(F)cc21	288
O=C1C(=O)N(CCCCn2cc(COc3ccc(/C=N/Nc4ccnc5cc(Cl)ccc45)cc3)nn2)c2ccc(F)cc21	134
O=C1C(=O)N(CCn2cc(COc3ccc(/C=N/Nc4ccnc5cc(Cl)ccc45)cc3)nn2)c2ccc(Cl)cc21	263
O=C1C(=O)N(CCCn2cc(COc3ccc(/C=N/Nc4ccnc5cc(Cl)ccc45)cc3)nn2)c2ccc(Cl)cc21	346
O=C1C(=O)N(CCCCn2cc(COc3ccc(/C=N/Nc4ccnc5cc(Cl)ccc45)cc3)nn2)c2ccc(Cl)cc21	141
Cc1ccc2c(c1)C(=O)C(=O)N2CCn1cc(COc2ccc(/C=N/Nc3ccnc4cc(Cl)ccc34)cc2)nn1	185
Cc1ccc2c(c1)C(=O)C(=O)N2CCCn1cc(COc2ccc(/C=N/Nc3ccnc4cc(Cl)ccc34)cc2)nn1	163
Cc1ccc2c(c1)C(=O)C(=O)N2CCCCn1cc(COc2ccc(/C=N/Nc3ccnc4cc(Cl)ccc34)cc2)nn1	204
O=C1C(O)c2ccccc2N1CCn1cc(COc2ccc(CNNc3ccnc4cc(Cl)ccc34)cc2)nn1 (configuration not stated)	128
O=C1C(O)c2ccccc2N1CCCn1cc(COc2ccc(CNNc3ccnc4cc(Cl)ccc34)cc2)nn1 (configuration not stated)	339

SMILES	IC50 [nM]
O=C1C(O)c2ccccc2N1CCCCn1cc(COc2ccc(CNNc3ccnc4cc(Cl)ccc34)cc2)nn1 (configuration not stated)	69
O=C1C(O)c2cc(F)ccc2N1CCn1cc(COc2ccc(CNNc3ccnc4cc(Cl)ccc34)cc2)nn1 (configuration not stated)	112
O=Cc1ccc(OCc2cn(CCCN3C(=O)C(=O)c4ccccc43)nn2)cc1	> 10000
O=Cc1ccc(OCc2cn(CCCCN3C(=O)C(=O)c4ccccc43)nn2)cc1	> 10000
O=Cc1ccc(OCc2cn(CCN3C(=O)C(=O)c4cc(F)ccc43)nn2)cc1	> 10000
O=Cc1ccc(OCc2cn(CCCN3C(=O)C(=O)c4cc(F)ccc43)nn2)cc1	> 10000
O=Cc1ccc(OCc2cn(CCCCN3C(=O)C(=O)c4cc(F)ccc43)nn2)cc1	> 10000
O=Cc1ccc(OCc2cn(CCN3C(=O)C(=O)c4cc(Cl)ccc43)nn2)cc1	> 10000
O=Cc1ccc(OCc2cn(CCCN3C(=O)C(=O)c4cc(Cl)ccc43)nn2)cc1	> 10000
O=Cc1ccc(OCc2cn(CCCCN3C(=O)C(=O)c4cc(Cl)ccc43)nn2)cc1	> 10000
Cc1ccc2c(c1)C(=O)C(=O)N2CCn1cc(COc2ccc(C=O)cc2)nn1	> 10000
Cc1ccc2c(c1)C(=O)C(=O)N2CCCn1cc(COc2ccc(C=O)cc2)nn1	> 10000
Cc1ccc2c(c1)C(=O)C(=O)N2CCCCn1cc(COc2ccc(C=O)cc2)nn1	6420
O=C1C(=O)N(CCn2cc(COc3ccc(/C=N/Nc4ccnc5cc(Cl)ccc45)cc3)nn2)c2ccccc21	118
O=C1C(=O)N(CCCn2cc(COc3ccc(/C=N/Nc4ccnc5cc(Cl)ccc45)cc3)nn2)c2ccccc21	165
O=C1C(=O)N(CCCCn2cc(COc3ccc(/C=N/Nc4ccnc5cc(Cl)ccc45)cc3)nn2)c2ccccc21	119
O=Cc1ccc(OCc2cn(CCN3C(=O)C(=O)c4ccccc43)nn2)cc1	> 10000
C[C@@H]1CC[C@H]2[C@@H](C)C(=O)O[C@@H]3O[C@@]4(C)CC[C@@H]1[C@]32OO4 [ARTEMISININ]	7

Source: ChEMBL document CHEMBL3112435, “1H-1,2,3-Triazole-tethered isatin-7-chloroquinoline and 3-hydroxy-indole-7-chloroquinoline conjugates: synthesis and antimalarial evaluation” (Bioorg Med Chem Lett, 2014)
